Structures can show the parent of a compound that is named as a salt. Where two headings read alike, the source gives them in different places.
Tests used:
[1] = Phase solubility of PM in in-situ basic salt-forming agents (arginine, meglumine); assay type: physicochemical; conditions: API saturated; for solubility thermodynamic: aqueous with cosolvent or surfactant or cyclodextrin, thermodynamic from solid, read-out: Drug concentration
Description: (§1) According to the pH guidance standard for injection, the optimal pH range for injection was 4-9.
Then, excessive PM raw materials were added and dissolved under ultrasound until saturation. A clear saturated solution was filtered out over a 0.22 μm membrane and transferred into a centrifuge tube. The concentration (mg/mL) and purity […] of dissolved PM raw materials were detected by HPLC, and then, whether there was drug precipitation was observed using a clarity detector after being stored in a refrigerator at 4° C. in dark for one day.

[2] = Phase solubility of PM in cyclodextrins (HP-β-CD, SBE-β-CD); assay type: physicochemical; conditions: API saturated; for Storing at 4° C. for one day: cell wraps ('sediment')
Description: as §1
Then, excess PM raw materials were added and dissolved under ultrasound until saturation. A clear saturated solution was filtered out over a 0.22 μm membrane and transferred into a centrifuge tube. The concentration (mg/mL) and purity (%) of dissolved PM raw materials were detected by HPLC, and then, whether there was drug precipitation was observed using a clarity detector after being stored in a refrigerator at 4° C. in dark for one day.

[3] = tested on: Human Burkitt's lymphoma Daudi cell lines; experiment: Pharmacodynamic experiment on subcutaneously transplanted tumor, Daudi, in NOD/SCID mice; assay type: in vivo; conditions: 10 mg/kg i.v. three times a week (LBH589 dose), female NOD/SCID mice, day 32
Description: Establishment of subcutaneously transplanted tumor model: Human Burkitt's lymphoma Daudi cell lines were in vitro cultured in RPMI-1640 medium containing 10% fetal bovine serum, 100 U/mL penicillin, and 100 μg/mL streptomycin. The cells in logarithmic growth phase were selected, and washed three times with PBS buffer under sterile conditions. The single cell suspension was diluted with PBS buffer to 2×10^8 cells/mL for future use. […], 0.1 mL of single cell suspension was taken, and then subcutaneously inoculated into the back of female NOD/SCID mice with a weight of >20 g. Grouping and treatment: When the volume of the tumor reached 100-200 mm^3 or above (the measurement and calculation method of tumor volume (TV): TV (mm^3)=a×b2×π/6, wherein a and b represent the longest diameter and the shortest diameter (mm), respectively), tumor-bearing mice with excessive or insufficient tumor volumes would be eliminated, and qualified animals were randomly divided into groups.
Experimental endpoint and analysis indicators: Example 5 of the present invention was administered 14 times, and the experiment was terminated on the 32nd day after the first treatment. The analysis indicators are:
(2) Determination of tumor weight and calculation of tumor inhibition rate (%)
When the experiment was terminated, the animals was euthanized according to the operating procedures of animal experiments, and dissected to collect the tumor mass, which was then weighted. The tumor inhibition rate (%) was calculated according to the following formula: […]
(3) Animal survival and weight changes during the experimental process.

[4] = tested on: Human multiple myeloma RPMI-8226 cell lines; experiment: Pharmacodynamic experiment on subcutaneously transplanted tumor, RPMI-8226, in NOD/SCID mice; assay type: in vivo; conditions: 10 mg/kg i.v. three times a week; female NOD/SCID mice, day 32
Description: Establishment of subcutaneously transplanted tumor model: […] The cells in logarithmic growth phase were selected, and washed three times with PBS buffer under sterile conditions. The single cell suspension was diluted with PBS buffer to 7×10^7 cells/mL for future use. Prior to seeding, 0.1 mL of single cell suspension was taken, and then subcutaneously inoculated into the back of female NOD/SCID mice with a weight of >20 g. Grouping and treatment: When the volume of the tumor reached 100-200 mm^3 or above (the measurement and calculation method of tumor volume (TV): TV (mm^3)=a×b2×π/6, wherein a and b represent the longest diameter and the shortest diameter (mm), respectively), tumor-bearing mice with excessive or insufficient tumor volumes would be eliminated, and qualified animals were randomly divided into groups. […] “B” means Bortezomib; “D” means Dexamethasone; “L” means Lenalidomide. Experimental endpoint and analysis indicators: Example 5 of the present invention was administered 14 times, and the experiment was terminated on the 32nd day after the first treatment. The analysis indicators are: (2) Determination of tumor weight and calculation of tumor inhibition rate (%) When the experiment was terminated, according to the operating procedures of animal experiments, the animals was euthanized and dissected to collect the tumor mass, which was then weighted. The tumor inhibition rate (%) was calculated according to the following formula: [formula] (3) Animal survival and weight changes during the experimental process.

Compound: CN(Cc1nc2c(N3CCOCC3)nc(-c3ccc(N)cc3)nc2n1C)c1ncc(C(=O)NO)cn1 [API, purinostat mesylate]
- solubility thermodynamic ([1]; 1‰ (M/V) arginine solution in UP water, Arginine 1‰): 50 µg/mL
- solubility thermodynamic ([1]; 1‰ (M/V) meglumine solution in UP water, Meglumine 1‰): 130 µg/mL
- solubility thermodynamic ([1]; 3‰ (M/V) arginine solution in UP water, Arginine 3‰): 110 µg/mL
- solubility thermodynamic ([1]; 3‰ (M/V) meglumine solution in UP water, Meglumine 3‰): 240 µg/mL
- solubility thermodynamic ([1]; 5‰ (M/V) arginine solution in UP water, Arginine 5‰): 170 µg/mL
- solubility thermodynamic ([1]; 5‰ (M/V) meglumine solution in UP water, Meglumine 5‰): 350 µg/mL
- solubility thermodynamic ([1]; 8‰ (M/V) arginine solution in UP water, Arginine 8‰): 280 µg/mL
- solubility thermodynamic ([1]; 8‰ (M/V) meglumine solution in UP water, Meglumine 8‰): 460 µg/mL
- solubility thermodynamic ([1]; 10‰ (M/V) arginine solution in UP water, Arginine 10‰): 370 µg/mL
- solubility thermodynamic ([1]; 10‰ (M/V) meglumine solution in UP water, Meglumine 10‰): 700 µg/mL
- Drug purity (%) ([1]; Arginine 1‰): 100%
- pH value ([1]; Arginine 1‰): 8.87
- Drug purity (%) ([1]; Arginine 3‰): 100%
- pH value ([1]; Arginine 3‰): 9.30
- Drug purity (%) ([1]; Arginine 5‰): 100%
- pH value ([1]; Arginine 5‰): 9.61
- Drug purity (%) ([1]; Arginine 8‰): 98.97%
- pH value ([1]; Arginine 8‰): 9.76
- Drug purity (%) ([1]; Arginine 10‰): 99.24%
- pH value ([1]; Arginine 10‰): 9.84
- Drug purity (%) ([1]; Meglumine 1‰): 100%
- pH value ([1]; Meglumine 1‰): 9.65
- Drug purity (%) ([1]; Meglumine 3‰): 99.80%
- pH value ([1]; Meglumine 3‰): 9.98
- Drug purity (%) ([1]; Meglumine 5‰): 96.55%
- pH value ([1]; Meglumine 5‰): 10.22
- Drug purity (%) ([1]; Meglumine 8‰): 99.45%
- pH value ([1]; Meglumine 8‰): 10.41
- Drug purity (%) ([1]; Meglumine 10‰): 99.07%
- pH value ([1]; Meglumine 10‰): 10.42
- Drug concentration ([2]; HP-β-CD 5% (M/V)): 1850 µg/mL
- Drug purity (%) ([2]; HP-β-CD 5% (M/V)): 99.21%
- pH values ([2]; HP-β-CD 5% (M/V)): 2.42
- Storing at 4° C. for one day ([2]; HP-β-CD 5% (M/V)): Trace
- Drug concentration ([2]; HP-β-CD 10% (M/V)): 2020 µg/mL
- Drug purity (%) ([2]; HP-β-CD 10% (M/V)): 99.15%
- pH values ([2]; HP-β-CD 10% (M/V)): 2.54
- Storing at 4° C. for one day ([2]; HP-β-CD 10% (M/V)): Trace
- Drug concentration ([2]; HP-β-CD 15% (M/V)): 3160 µg/mL
- Drug purity (%) ([2]; HP-β-CD 15% (M/V)): 99.08%
- pH values ([2]; HP-β-CD 15% (M/V)): 2.55
- Storing at 4° C. for one day ([2]; HP-β-CD 15% (M/V)): Trace
- Drug concentration ([2]; HP-β-CD 20% (M/V)): 4130 µg/mL
- Drug purity (%) ([2]; HP-β-CD 20% (M/V)): 98.96%
- pH values ([2]; HP-β-CD 20% (M/V)): 2.67
- Storing at 4° C. for one day ([2]; HP-β-CD 20% (M/V)): Trace
- Drug concentration ([2]; HP-β-CD 25% (M/V)): 4520 µg/mL
- Drug purity (%) ([2]; HP-β-CD 25% (M/V)): 98.24%
- pH values ([2]; HP-β-CD 25% (M/V)): 2.7
- Storing at 4° C. for one day ([2]; HP-β-CD 25% (M/V)): Trace
- Drug concentration ([2]; SBE-β-CD 5% (M/V)): 930 µg/mL
- Drug purity (%) ([2]; SBE-β-CD 5% (M/V)): 99.78%
- pH value ([2]; SBE-β-CD 5% (M/V)): 3.77
- Storing at 4° C. for one day ([2]; SBE-β-CD 5% (M/V)): Trace
- Drug concentration ([2]; SBE-β-CD 10% (M/V)): 1180 µg/mL
- Drug purity (%) ([2]; SBE-β-CD 10% (M/V)): 99.01%
- pH value ([2]; SBE-β-CD 10% (M/V)): 3.71
- Storing at 4° C. for one day ([2]; SBE-β-CD 10% (M/V)): Trace
- Drug concentration ([2]; SBE-β-CD 15% (M/V)): 1800 µg/mL
- Drug purity (%) ([2]; SBE-β-CD 15% (M/V)): 99.35%
- pH value ([2]; SBE-β-CD 15% (M/V)): 3.67
- Storing at 4° C. for one day ([2]; SBE-β-CD 15% (M/V)): Trace
- Drug concentration ([2]; SBE-β-CD 20% (M/V)): 2220 µg/mL
- Drug purity (%) ([2]; SBE-β-CD 20% (M/V)): 99.35%
- pH value ([2]; SBE-β-CD 20% (M/V)): 3.64
- Storing at 4° C. for one day ([2]; SBE-β-CD 20% (M/V)): Trace
- Drug concentration ([2]; SBE-β-CD 25% (M/V)): 2610 µg/mL
- Drug purity (%) ([2]; SBE-β-CD 25% (M/V)): 99.17%
- pH value ([2]; SBE-β-CD 25% (M/V)): 3.57
- Storing at 4° C. for one day ([2]; SBE-β-CD 25% (M/V)): Trace

Compound: Cc1[nH]c2ccccc2c1CCNCc1ccc(/C=C/C(=O)NO)cc1 [LBH589]
- Animal numbers End/Begining [3]: 7/7
- Tumor inhibition rate (%) [3]: 76.92%
- Weight of tumor mass X ± SD ([3]; in g (unit assumed)): 0.83 ± 0.38
- Animal number End/Beginning [4]: 6/6
- Tumor inhibition rate (%) [4]: 59.79%
- Tumor weight (g) X ± SD [4]: 0.90 ± 0.37 g
